Assay results published in article PMC10460801 (Advanced Pharmaceutical Bulletin, 2022).
In brackets after ≈: the same amount, converted by molar mass. Where two headings read alike, the source gives them in different places.

Legend:
[1] = Saturation shake-flask equilibrium solubility (48 h, 37 °C, UV-Vis); type: physicochemical; details: for solubility thermodynamic at 48 h: thermodynamic from solid, read-out: Css mean
Experimental: In this study dissolution test has been performed in the presence of amino acids within various media, including phosphate buffer solution (pH = 7.4), hydrochloric acid buffer (pH = 1.2), citrate buffer (pH = 6 and pH = 4.2), and distilled water (pH = 6.5). Briefly, for each buffer, a suitable amount of components was transferred to a 250 mL volumetric flask and then diluted with distilled water to the volume line. Finally, the pH of the solution was examined and set using a pH meter (Germany, Metrohm SWISS mode).
The saturation shake-flask method has been used for solubility studies. In brief, buffer solutions containing different concentrations of each amino acid were prepared. An excess amount of each drug was weighed in capped vials, then buffers alone and mixed with amino acids were added to the vials and the pH change was set again. After that, capped vials were shaken for about 48 hours on a shaker incubator (Korea, HYSC) at speed of 150 RPM and 37^ᵒC to reach equilibrium and result a saturated solution. After 48 hours the upper phase was separated and centrifuged. Filtered samples were diluted with buffer before reading their UV-Vis absorbance. Then the amount of solubility was calculated using a calibration curve considering the dilution coefficient. Each of the experiments was repeated three times.

[2] = cited from earlier work
[3] = cited from earlier work; remark: listed apart in the source
[4] = Citrate buffer, pH 4.2 before incubation, 48 h, 37 °C
[5] = Citrate buffer, pH 6 before incubation, 48 h, 37 °C
[6] = Phosphate buffer, pH 7.4 before incubation, 48 h, 37 °C
[7] = aqueous buffer, Citrate buffer, pH 6 before incubation, 48 h, 37 °C
[8] = aqueous buffer, Phosphate buffer, pH 7.4 before incubation, 48 h, 37 °C
[9] = distilled water, pH 6.5, increasing GlucN
[10] = Water, pH 6.5 before incubation, 48 h, 37 °C
[11] = hydrochloric acid buffer, pH 1.2 before incubation, 48 h, 37 °C

| SMILES | Measured Css Sample 1 [1, 5] | Measured Css Sample 2 [1, 5] | Measured Css Sample 3 [1, 5] | Measured Css Sample 1 [1, 6] | Measured Css Sample 2 [1, 6] | Measured Css Sample 3 [1, 6] | solubility thermodynamic at 48 h [1, 7] | solubility thermodynamic at 48 h [1, 8] | change of drug solubility in the presence of GlucN ([1]; citrate buffer, pH 6) | change of drug solubility in the presence of GlucN [1, 9] | other results |
| --- | --- | --- | --- | --- | --- | --- | --- | --- | --- | --- | --- |
| CN1C(C(=O)Nc2ccccn2)=C(O)c2ccccc2S1(=O)=O [PXM, Piroxicam] | 140 µg/mL | 130 µg/mL | 150 µg/mL | 1250 µg/mL | 1320 µg/mL | 1320 µg/mL | 140 µg/mL (≈ 0.423 mM) | 1290 µg/mL (≈ 3.89 mM) | improved the solubility | does not change significantly | Measured Css Sample 1 [1, 4]: 280 µg/mL; Measured Css Sample 2 [1, 4]: 230 µg/mL; Measured Css Sample 3 [1, 4]: 250 µg/mL; solubility thermodynamic at 48 h ([1]; aqueous buffer, Citrate buffer, pH 4.2 before incubation, 48 h, 37 °C): 250 µg/mL (≈ 0.754 mM); change of drug solubility in the presence of GlucN ([1]; citrate buffer, pH 4.2): enhanced; change of drug solubility in the presence of LYS ([1]; citrate buffer, pH 4.2, Figure 3B): did not follow a specific trend; change of drug solubility in the presence of ARG ([1]; phosphate buffer, concentration above molar ratio 1:1 PXM/ARG, Figure 3A): solubility goes down |
| N[C@H]1C(O)O[C@H](CO)[C@@H](O)[C@@H]1O (stereo partly drawn) [GlucN, Glucosamine] |  |  |  |  |  |  |  |  |  |  | water solubility [2]: 320000 µg/mL (≈ 1790 mM) |
| CC(C)Cc1ccc(C(C)C(=O)O)cc1 (stereo not drawn) [IBU, Ibuprofen] | 5330 µg/mL | 5050 µg/mL | 5240 µg/mL | 10510 µg/mL | 10330 µg/mL | 10510 µg/mL | 5200 µg/mL (≈ 25.2 mM) | 10400 µg/mL (≈ 50.7 mM) | solubility increased | follows an upward pattern | unionized fraction in the stomach [3]: 99.9%; intrinsic water solubility ([2]; free acid): ~60 µg/mL; Measured Css Sample 1 [1, 10]: 3210 µg/mL; Measured Css Sample 2 [1, 10]: 3110 µg/mL; Measured Css Sample 3 [1, 10]: 3060 µg/mL; solubility thermodynamic at 48 h ([1]; distilled water, Water, pH 6.5 before incubation, 48 h, 37 °C): 3120 µg/mL (≈ 15.1 mM); Css mean [1, 11]: 800 µg/mL; Measured Css Sample 1 [1, 11]: 790 µg/mL; Measured Css Sample 2 [1, 11]: 820 µg/mL; Measured Css Sample 3 [1, 11]: 790 µg/mL; solubility thermodynamic at 48 h ([1]; simulated gastric fluid, hydrochloric acid buffer, pH 1.2 before incubation, 48 h, 37 °C): 800 µg/mL (≈ 3.88 mM) |
